{"source": "patent US20260176393A1", "about": "“PRESERVATIVE COMPOSITION FOR BIOLOGICAL SAMPLES” (KANAZAWA UNIVERSITY, priority 2022, published 2026)", "key": {"[1]": {"system": "mouse fibroblasts (mNF)", "assay": "Cryopreservation test, survival rate of mNF cells", "assay_type": "cell-based", "details": "10 wt % in Water; after cryopreservation", "experimental": "In the case of adherent cells, the cells to be frozen were treated with trypsin and recovered by centrifugation. In the case of floating cells, the cells to be frozen were recovered by centrifugation. The cells of each type were diluted with Dulbecco's modified Eagle medium (DMEM), and the cell concentration was measured. In the present specification, the DMEM solution is also simply referred to as a medium. […] Frosty®. In the present Examples, the commercially available cryopreservative solution used was CultureSure® (manufactured by FUJIFILM Wako Pure Chemical Corp.) unless otherwise specified. The cryopreservation time was set to 48 hours. Then, the cells were thawed at a tube temperature of 37° C. and used in live cell counting. The cells were thawed by the addition of 1 mL of a medium to the cryopreservation vial at 37° C. and centrifuged to remove a supernatant. The cells thus obtained by centrifugation were resuspended in a medium, followed by live cell counting."}, "[2]": {"assay": "Osmotic pressure, vapor pressure-type osmometer", "assay_type": "physicochemical", "details": "10 wt % in Water", "experimental": "A vapor pressure-type osmometer (VAPRO 5600; Wescor, Inc., Logan, UT, USA) was used, and an osmotic pressure was measured in a 10 mL standard chamber (room temperature: 25° C., apparatus sensor temperature: 33° C., sample volume: 10 μL)."}, "[3]": {"system": "Human kidney cells (BOSC)", "assay": "Cryopreservation test, survival rate of BOSC cells", "assay_type": "cell-based", "details": "10 wt % in Water; after cryopreservation", "experimental": "In the case of adherent cells, the cells to be frozen were treated with trypsin and recovered by centrifugation. In the case of floating cells, the cells to be frozen were recovered by centrifugation. The cells of each type were diluted with Dulbecco's modified Eagle medium (DMEM), and the cell concentration was measured. In the present specification, the DMEM solution is also simply referred to as a medium.\nSubsequently, each dilution was dispensed at 1 mL/tube to 1.5 mL tubes, and the cells were suspended in a cryopreservative solution containing 100 μL of a zwitterion polymer solution and frozen at a cooling temperature of −85° C. and a cooling rate of −1° C./min by a cell freezing container Mr. Frosty®. In the present Examples, the commercially available cryopreservative solution used was CultureSure® (manufactured by FUJIFILM Wako Pure Chemical Corp.) unless otherwise specified. The cryopreservation time was set to 48 hours. Then, the cells were thawed at a tube temperature of 37° C. and used in live cell counting.\nThe cells were thawed by the addition of 1 mL of a medium to the cryopreservation vial at 37° C. and centrifuged to remove a supernatant. The cells thus obtained by centrifugation were resuspended in a medium, followed by live cell counting."}}, "data": [{"smiles": "C=Cn1cc[n+](CCCC(=O)[O-])c1", "note": "[VimC3C]", "values": [{"measurement": "Survival rate (mNF)", "setting": "[1]", "result": 0.42}, {"measurement": "Osmotic pressure", "setting": "[2]", "result": 860, "unit": "mOsm/kg"}, {"measurement": "Survival rate (BOSC)", "setting": "[3]", "result": 0.15}]}]}
